We go through two compounds from US20090221095A1, “Colorimetric Screening of DNA Binding/Intercalating Agents with Gold Nanoparticle Probes” (NORTHWESTERN UNIVERSITY, priority 2005, published 2009).

This assay deals with duplex DNA between NP-1 and NP-2. Kind of assay: Naked-eye color change of NP-1/NP-2 nanoassembly at specific temperatures. The format is binding. Conditions: for color of nanoassembly: NP-1 and NP-2 1.5 nM each, intercalator 5 μM; for trend of intercalator binding affinities for DNA: from the color change with temperature. The source says:
This method also utilizes the aggregation-induced, red-to-blue color change associated with 13 nm Au nanoparticles. Gold nanoparticles are functionalized with one of two complementary thiol-modified oligonucleotide strands and are denoted NP-1 and NP-2. When NP-1 and NP-2 are combined, they form aggregates through a reversible DNA hybridization process. This process results in a red-to-blue color change due to a red-shifting and dampening of the nanoparticle plasmon resonance. Increasing the temperature above the melting temperature of the DNA reverses the process, and the particles dissociate with a concomitant blue-to-red color change. […] This increased stability is reflected by an increase in melting temperature. Note that the shape and breadth of the transition is almost independent of the intercalator (FIG. 4). Therefore, by monitoring the blue-to-red color transition of hybridized oligonucleotide-modified Au nanoparticles in the presence of different compounds, the relative strength of intercalator binding can be determined with the naked-eye.
In general, assay methods that can detect drug candidates by the naked eye, without resorting to any instrumentation, are convenient, and for this reason, an assay that could seem for drug candidates based on DNA intercalation would be of great interest. […] As the temperature increases, the color change from blue to red occurs at specific temperatures. At 25° C. all eight cells (one control and seven intercalators) appear light blue/purple in color. At 30° C., the nanoassemblies containing the control and weak intercalators turn red in color leaving only the nanoassemblies containing DAPI, DNR, and EB as blue/purple.

Turning to `N=C(N)c1ccc(-c2cc3ccc(C(=N)N)cc3[nH]2)cc1` [DAPI, 4′,6-diamidino-2-phenylindole], the “trend of intercalator binding affinities for DNA” value is given as “DAPI>DNR˜EB>other intercalators”. In addition, the color of nanoassembly result (30° C.) was “blue/purple”. Besides, the color of nanoassembly result (40° C.) is on record as “turn red except the nanoassembly containing DAPI”.

As to `COc1cccc2c1C(=O)c1c(O)c3c(c(O)c1C2=O)C[C@@](O)(C(C)=O)C[C@@H]3O[C@H]1C[C@H](N)[C@H](O)[C@H](C)O1` [DNR, daunorubicin], the “trend of intercalator binding affinities for DNA” value is “DAPI>DNR˜EB>other intercalators”. Further, under “30° C.”, the color of nanoassembly result was “blue/purple”.
